In patent publication US9518018B2, “3-alkoxy, thioalkyl and amino-4-amino-6-(substituted)picolinates and their use as herbicides” (Dow AgroSciences LLC, priority 2011, dated 2016):

Legend:
Assay in all cases: Post-Emergent Test I herbicidal activity
Assay type in all cases: in vivo
[1] = tested on: ZEAMX: corn (Zea mays); details: Zea mays, post-emergence, 336 h, read-out: Visual Growth Reduction (%)-14 Days after Application ZEAMX; for pest or weed control at 70 g/ha: Table 3, 70 g ai/ha; for pest or weed control at 140 g/ha: Table 3, 140 g ai/ha
Experimental: (§1) Seeds or nutlets of the desired test plant species were planted in Sun Gro Metro-Mix® 360 planting mixture, which typically has a pH of 6.0 to 6.8 and an organic matter content of about 30 percent, in plastic pots with a surface area of 64 square centimeters. When required to ensure good germination and healthy plants, a fungicide treatment and/or other chemical or physical treatment was applied. The plants were grown for 7-21 d in a greenhouse with an approximate 15 h photoperiod which was maintained at about 23-29° C. during the day and 22-28° C. during the night. Nutrients and water were added on a regular basis and supplemental lighting was provided with overhead metal halide 1000-Watt lamps as necessary. The plants were employed for testing when they reached the first or second true leaf stage.
(§2) A weighed amount, determined by the highest rate to be tested, of each test compound was placed in a 25 mL glass vial and was dissolved in 4 mL of a 97:3 v/v mixture of acetone and DMSO to obtain concentrated stock solutions. […] The concentrated stock solutions obtained were diluted with 20 mL of an aqueous mixture containing acetone, water, isopropyl alcohol, DMSO, Atplus 411F crop oil concentrate, and Triton® X-155 surfactant in a 48.5:39:10:1.5:1.0:0.02 v/v ratio to obtain spray solutions containing the highest application rates. Additional application rates were obtained by serial dilution of 12 mL of the high rate solution into a solution containing 2 mL of 97:3 v/v mixture of acetone and DMSO and 10 mL of an aqueous mixture containing acetone, water, isopropyl alcohol, DMSO, Atplus 411F crop oil concentrate, and Triton X-155 surfactant in a 48.5:39:10:1.5:1.0:0.02 v/v ratio to obtain ½×, ¼×, ⅛× and 1/16× rates of the high rate. Compound requirements are based upon a 12 mL application volume at a rate of 187 liters per hectare (L/ha). Formulated compounds were applied to the plant material with an overhead Mandel track sprayer equipped with 8002E nozzles calibrated to deliver 187 L/ha over an application area of 0.503 square meters at a spray height of 18 inches (43 cm) above the average plant canopy height. Control plants were sprayed in the same manner with the solvent blank.
(§3) The treated plants and control plants were placed in a greenhouse as described above and watered by subirrigation to prevent wash-off of the test compounds. After 14 d, the condition of the test plants as compared with that of the untreated plants was determined visually and scored on a scale of 0 to 100 percent where 0 corresponds to no injury and 100 corresponds to complete kill.
(§4) By applying the well-accepted probit analysis as described by J. Berkson in Journal of the […], 48, 565 (1953) and by D. Finney in “Probit Analysis” Cambridge University Press (1952), the above data can be used to calculate GR20, GR50 and GR80 values, which are defined as growth reduction factors that correspond to the effective dose of herbicide required to kill or control 20 percent, 50 percent or 80 percent, respectively, of a target plant.

[2] = tested on: CHEAL: lambsquarters (Chenopodium album); details: Chenopodium album, post-emergence, 336 h, read-out: Visual Growth Reduction (%)-14 Days after Application CHEAL; for pest or weed control at 70 g/ha: Table 3, 70 g ai/ha; for pest or weed control at 140 g/ha: Table 3, 140 g ai/ha
Experimental: as §1, §2, §3, §4

[3] = tested on: ABUTH: velvetleaf (Abutilon theophrasti); details: Abutilon theophrasti, post-emergence, 336 h, read-out: Visual Growth Reduction (%)-14 Days after Application ABUTH; for pest or weed control at 70 g/ha: Table 3, 70 g ai/ha; for pest or weed control at 140 g/ha: Table 3, 140 g ai/ha
Experimental: as §1, §2, §3, §4

[4] = tested on: CYPES: yellow nutsedge (Cyperus esculentus); details: post-emergence, 336 h, read-out: Visual Growth Reduction (%)-14 Days after Application CYPES; for pest or weed control at 70 g/ha: Table 3, 70 g ai/ha; for pest or weed control at 140 g/ha: Table 3, 140 g ai/ha
Experimental: as §1, §2, §3, §4

[5] = tested on: EPHHL: wild poinsettia (Euphorbia heterophylla); details: post-emergence, 336 h, read-out: Visual Growth Reduction (%)-14 Days after Application EPHHL; for pest or weed control at 70 g/ha: Table 3, 70 g ai/ha; for pest or weed control at 140 g/ha: Table 3, 140 g ai/ha
Experimental: as §1, §2, §3, §4

[6] = tested on: ORYSA: rice (Oryza sativa); details: post-emergence, 336 h, read-out: Visual Growth Reduction (%)-14 Days after Application ORYSA; for pest or weed control at 70 g/ha: Table 3, 70 g ai/ha; for pest or weed control at 140 g/ha: Table 3, 140 g ai/ha
Experimental: as §1, §2, §3, §4

[7] = tested on: ECHCG: barnyardgrass (Echinochloa crus-galli); details: post-emergence, 336 h, read-out: Visual Growth Reduction (%)-14 Days after Application ECHCG; for pest or weed control at 70 g/ha: Table 3, 70 g ai/ha; for pest or weed control at 140 g/ha: Table 3, 140 g ai/ha
Experimental: as §1, §2, §3, §4

| Compound | pest or weed control at 140 g/ha [1] [%] | pest or weed control at 140 g/ha [2] [%] | pest or weed control at 140 g/ha [3] [%] | pest or weed control at 140 g/ha [4] [%] | pest or weed control at 140 g/ha [5] [%] | pest or weed control at 140 g/ha [6] [%] | pest or weed control at 140 g/ha [7] [%] | other results |
| --- | --- | --- | --- | --- | --- | --- | --- | --- |
| COC(=O)c1nc(-c2ccc(Cl)cc2F)c(F)c(N)c1OC [Compound 69] | – | – | – | – | – | – | – | pest or weed control at 70 g/ha [1]: 10%; pest or weed control at 70 g/ha [2]: 0%; pest or weed control at 70 g/ha [3]: 85%; pest or weed control at 70 g/ha [4]: 100%; pest or weed control at 70 g/ha [5]: 100%; pest or weed control at 70 g/ha [6]: 0%; pest or weed control at 70 g/ha [7]: 30% |
| COC(=O)c1nc(-c2ccc(I)c(F)c2)c(F)c(N)c1OC [Compound 27] | 70 | 90 | 60 | 100 | 100 | 0 | 60 | – |
| COC(=O)c1nc(C(C)(F)F)cc(N)c1OC [Compound 81, methyl 4-amino-6-(1,1-difluoroethyl)-3-methoxypicolinate] | 0 | 80 | 10 | 0 | 60 | 0 | 0 | – |
| COc1c(C(=O)O)nc(-c2ccc(C(F)(F)F)c(F)c2)c(F)c1N [Compound 11, 4-amino-5-fluoro-6-(3-fluoro-4-(trifluoromethyl)phenyl)-3-methoxypicolinic acid] | 80 | 100 | 100 | 50 | 100 | 12 | 100 | – |
| COC(=O)c1nc(-c2ccc(Br)cc2F)c(F)c(N)c1OC [Compound 22] | 70 | 100 | 60 | 50 | 100 | 0 | 90 | – |
| COC(=O)c1nc(-c2ccc3c(c2F)OCO3)c(F)c(N)c1OC [Compound 42] | 75 | 90 | 60 | 10 | 100 | 0 | 0 | – |
| COc1c(C(=O)O)nc(-c2ccc(Cl)cc2F)c(F)c1N [Compound 71] | – | – | – | – | – | – | – | pest or weed control at 70 g/ha [1]: 70%; pest or weed control at 70 g/ha [2]: 90%; pest or weed control at 70 g/ha [3]: 80%; pest or weed control at 70 g/ha [4]: 100%; pest or weed control at 70 g/ha [5]: 100%; pest or weed control at 70 g/ha [6]: 0%; pest or weed control at 70 g/ha [7]: 85% |
| CCOC(=O)c1nc(-c2ccc(Cl)c(OC)c2F)cc(N)c1OC(F)F [Compound 8, ethyl 4-amino-6-(4-chloro-2-fluoro-3-methoxyphenyl)-3-(difluoromethoxy)picolinate] | – | – | – | – | – | – | – | pest or weed control at 280 g/ha ([1]; Table 3, 280 g ai/ha): 0%; pest or weed control at 280 g/ha ([2]; Table 3, 280 g ai/ha): 30%; pest or weed control at 280 g/ha ([3]; Table 3, 280 g ai/ha): 25%; pest or weed control at 280 g/ha ([4]; Table 3, 280 g ai/ha): 0%; pest or weed control at 280 g/ha ([5]; Table 3, 280 g ai/ha): 90%; pest or weed control at 280 g/ha ([6]; Table 3, 280 g ai/ha): 0%; pest or weed control at 280 g/ha ([7]; Table 3, 280 g ai/ha): 0% |
| COc1c(N)cc(C(C)(F)F)nc1C(=O)O [Compound 82, 4-amino-6-(1,1-difluoroethyl)-3-methoxypicolinic acid] | 0 | 85 | 20 | 0 | 80 | 0 | 0 | – |
| COC(=O)c1nc(-c2ccc(Cl)c(C(C)F)c2F)c(F)c(N)c1OC (centres unmarked) [Compound 33, methyl 4-amino-6-(4-chloro-2-fluoro-3-(1-fluoroethyl)phenyl)-5-fluoro-3-methoxypicolinate] | 70 | 100 | 100 | 100 | 100 | 0 | 80 | – |
| COC(=O)c1nc(-c2ccc(C3CC3)nc2)c(F)c(N)c1OC [Compound 76, methyl 4-amino-6′-cyclopropyl-3-fluoro-5-methoxy-[2,3′-bipyridine]-6-carboxylate] | 50 | 80 | 85 | 95 | 97 | 0 | 0 | – |
| COC(=O)c1nc(C(C)F)cc(N)c1OC (centres unmarked) [Compound 83, methyl 4-amino-6-(1-fluoroethyl)-3-methoxypicolinate] | 0 | 0 | 0 | 0 | 0 | 0 | 0 | – |
| COC(=O)c1nc(-c2ccc(OC)nc2)c(F)c(N)c1OC [Compound 75, methyl 4-amino-3-fluoro-5,6′-dimethoxy-[2,3′-bipyridine]-6-carboxylate] | 85 | 85 | 90 | 95 | 85 | 0 | 0 | – |
| C=Cc1nc(C(=O)O)c(OC)c(N)c1F [Compound 95, 4-amino-5-fluoro-3-methoxy-6-vinylpicolinic acid] | 0 | 60 | 0 | 0 | 30 | 0 | 0 | – |
